From PubChem BioAssay (NCI)
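Growth conditions: 96-well plates. Treatment: test compound, 48 hours, 5 concentrations. Analysis: linear interpolation between bracketing concentrations; unreached endpoints set to highest concentration. GI50: concentration for 50% inhibition of growth. TGI: total growth inhibition.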 Where a SMILES comes first, the peptide text is derived from it. The star is where a group is joined. Boc = CC(C)(C)OC(=O)*; OtBu = CC(C)(C)O*

What was measured:
Experiment in all cases: inhibition of tumour cell growth, NCI panel, 48 h
A498 renal = test system: A498 renal
A549 NSCLC = test system: A549 NSCLC
EKVX NSCLC = test system: EKVX NSCLC
HCT-15 colon = test system: HCT-15 colon
MDA-MB-231 breast = test system: MDA-MB-231 breast
OVCAR-5 ovarian = test system: OVCAR-5 ovarian
PC-3 prostate = test system: PC-3 prostate
SK-MEL-28 melanoma = test system: SK-MEL-28 melanoma
T-47D breast = test system: T-47D breast
TK-10 renal = test system: TK-10 renal
HCC-2998 colon = test system: HCC-2998 colon

SMILES | TGI (A498 renal) | TGI (A549 NSCLC) | TGI (EKVX NSCLC) | TGI (HCT-15 colon) | TGI (MDA-MB-231 breast) | TGI (OVCAR-5 ovarian) | TGI (PC-3 prostate) | TGI (SK-MEL-28 melanoma) | TGI (T-47D breast) | TGI (TK-10 renal) | GI50 (A498 renal) | GI50 (A549 NSCLC) | GI50 (EKVX NSCLC) | GI50 (HCC-2998 colon) | TGI (HCC-2998 colon) | GI50 (HCT-15 colon) | GI50 (MDA-MB-231 breast) | GI50 (OVCAR-5 ovarian) | GI50 (SK-MEL-28 melanoma) | GI50 (TK-10 renal)
C[N+](C)(C)CC(=O)N/N=C\c1c(O)ccc2ccccc12 | 97.8 µM | > 100 µM | > 100 µM | > 100 µM | > 100 µM | > 100 µM | > 100 µM | > 100 µM | > 100 µM | > 100 µM | – | – | – | – | – | – | – | – | – | –
COc1ccc(N(c2ccc(C#N)cc2)c2ccc(C#N)cc2)cc1 | > 100 µM | > 100 µM | > 100 µM | > 100 µM | > 100 µM | > 100 µM | > 100 µM | > 100 µM | 77.6 µM | > 100 µM | – | – | – | – | – | – | – | – | – | –
O[C@@H]1CCCCN1Cc1cc2cc3c(cc2c2cc(OCc4ccccc4)ccc12)OCO3 | 2.75 µM | 3.31 µM | 3.97 µM | 4.37 µM | 3.33 µM | 3.93 µM | – | 2.94 µM | – | 4.05 µM | 1.41 µM | 1.62 µM | 2.01 µM | 0.509 µM | 1.83 µM | 1.81 µM | 1.75 µM | 1.73 µM | 1.55 µM | 2.08 µM
COc1cc(/C=C(\C#N)C(=O)c2ccccc2)cc(OC)c1OC | – | > 100 µM | > 100 µM | > 100 µM | – | > 100 µM | – | > 100 µM | – | > 100 µM | – | – | – | – | > 100 µM | – | – | – | – | –
O=C(NNC(=O)c1cc2ccccc2[nH]1)c1cc2ccccc2[nH]1 | > 100 µM | > 100 µM | > 100 µM | > 100 µM | > 100 µM | > 100 µM | > 100 µM | > 100 µM | > 100 µM | > 100 µM | – | – | – | – | – | – | – | – | – | –
NCCCc1nonc1C(=O)O | – | > 100 µM | > 100 µM | > 100 µM | > 100 µM | > 100 µM | > 100 µM | > 100 µM | > 100 µM | > 100 µM | – | – | – | – | > 100 µM | – | – | – | – | –
CCCCCCCCCCCCOC(=N)N1CCOCC1 | > 52.3 µM | 30.4 µM | 26.4 µM | 16.3 µM | – | 28.5 µM | – | 25.3 µM | – | 31.6 µM | – | – | – | – | 23.8 µM | – | – | – | – | –
CCn1c(O)c(C(=O)Nc2cccs2)c(=O)n(CC)c1=S | 36.8 µM | 49.8 µM | – | 41.7 µM | – | 61.5 µM | – | 32.2 µM | – | 69.3 µM | – | – | – | – | – | – | – | – | – | –
CC(C)(C)OC(=O)CC(NC(=O)OC(C)(C)C)C(=O)NC(Cc1ccccc1)C(N)=O (configuration not stated) (Boc-Asp(OtBu)-Phe-NH2; configuration not given here) | > 100 µM | > 100 µM | > 100 µM | > 100 µM | > 100 µM | > 100 µM | > 100 µM | > 100 µM | > 100 µM | > 100 µM | – | – | – | – | – | – | – | – | – | –
O=[N+]([O-])c1cccc(-c2ccc([C@H]3CC(c4ccc(Cl)cc4)=NN3)o2)c1 | 88.2 µM | > 100 µM | > 100 µM | 40.3 µM | – | > 100 µM | – | – | 41.7 µM | 42.8 µM | – | – | – | – | 38.1 µM | – | – | – | – | –
CCOc1cc(NC(C)=O)ccc1C(=O)NN1C(=O)/C(=C/c2ccc(Cl)cc2)N=C1c1ccccc1 | 81.4 µM | > 100 µM | > 100 µM | > 100 µM | > 100 µM | > 100 µM | > 100 µM | > 100 µM | 77.1 µM | > 100 µM | – | – | – | – | – | – | – | – | – | –
COCc1nc(C#N)c(N)o1 | – | > 10 µM | > 10 µM | > 10 µM | > 10 µM | – | > 10 µM | > 10 µM | > 10 µM | > 10 µM | – | – | – | – | > 10 µM | – | – | – | – | –
Nc1cc2c(C3OC(CO)C(O)C3O)[nH]nc2c(=S)[nH]1 (configuration not stated) | > 100 µM | > 100 µM | > 100 µM | > 100 µM | – | > 100 µM | – | > 100 µM | – | – | – | – | – | – | > 100 µM | – | – | – | – | –
Cc1c(S(=O)(=O)/N=C(\NO)Nc2ccc(Cl)cc2)sc2ccc(Cl)cc12 | – | 33.8 µM | 25.1 µM | 30.6 µM | 42.7 µM | 33.3 µM | 31.1 µM | 32.9 µM | 89.9 µM | 35.5 µM | – | – | – | – | – | – | – | – | – | –
O=C1/C(=C/c2ccc(Cl)cc2)NC(=S)N1CN1CCCCC1 | > 100 µM | > 100 µM | > 100 µM | 58.2 µM | > 100 µM | > 100 µM | > 100 µM | > 100 µM | – | > 100 µM | – | – | – | – | – | – | – | – | – | –
O=C(O)OC12CCCCCC1C(=O)C1CCCCC12 (configuration not stated) | – | > 100 µM | > 100 µM | > 100 µM | – | – | – | > 100 µM | – | > 100 µM | – | – | – | – | – | – | – | – | – | –
COc1ccc(Cc2c3cc(OC)c(OC)cc3cc[n+]2C)cc1 | > 100 µM | > 46.5 µM | > 59 µM | > 52.8 µM | – | > 100 µM | – | > 58.6 µM | – | > 65.1 µM | – | – | – | – | > 32.8 µM | – | – | – | – | –
CSC(SC)=C1Sc2cccc(Cl)c2S1 | > 100 µM | > 100 µM | > 100 µM | > 100 µM | – | > 100 µM | – | > 100 µM | – | > 100 µM | – | – | – | – | 44.9 µM | – | – | – | – | –
CCOC(=O)n1c(=O)nc2c3c(ncn21)Oc1c(c(-c2ccccc2)nn1-c1ccccc1)C3c1ccc(Cl)cc1 (configuration not stated) | 3.85 µM | 3.01 µM | – | 2.4 µM | 2.7 µM | 3.53 µM | 3.1 µM | 3.18 µM | 3.15 µM | 3.07 µM | – | – | – | – | 1.97 µM | – | – | – | – | –
CC1CC(=O)C(CC(=O)O)[C@H]1C(C(=O)C(=O)Nc1cc(Cl)ccc1Cl)[N+](=O)[O-] (some centres not stated) | > 100 µM | > 100 µM | > 100 µM | > 100 µM | – | > 100 µM | – | > 100 µM | – | > 100 µM | – | – | – | – | > 100 µM | – | – | – | – | –
COC(=O)C#CC1(O)C=CC(=O)C=C1 | > 100 µM | > 48.1 µM | 24.5 µM | 4.32 µM | – | 10.4 µM | 5.76 µM | 1.67 µM | 3.74 µM | 5.22 µM | – | – | – | – | 8.15 µM | – | – | – | – | –
COC(=O)c1c(O)ccc2c1c1c(n2CCc2ccccc2)C(=O)c2ccccc2C1 | 40.5 µM | > 100 µM | – | 63.8 µM | 57 µM | – | 50.6 µM | 53.8 µM | – | > 100 µM | – | – | – | – | – | – | – | – | – | –
CC(C)=CCN1c2ccccc2[C@@]2(CC=C(C)C)CCN(C)[C@@H]12 | – | > 100 µM | 64.3 µM | > 100 µM | > 100 µM | > 100 µM | > 100 µM | > 100 µM | 50.3 µM | > 100 µM | – | – | – | – | 29.5 µM | – | – | – | – | –
